Experimental data: patent EP4667464A1 (Cyrus Therapeutics Inc., priority 2023, dated 2024)
Read-outs that look alike come from different tables or passages of the source.

Tests used:
[1] = target: T1, SOS1 (Homo sapiens, UniProt Q07889); experiment: SOS-catalyzed nucleotide exchange assay (HTRF, SOS1-mediated GTP loading of KRAS G12D); assay type: biochemical
T1 construct: HIS-SOS1cat (160 nM; Cytoskeleton, US); His (N); purchased Cytoskeleton
T1 sequence (Q07889 564-1049 limits assumed): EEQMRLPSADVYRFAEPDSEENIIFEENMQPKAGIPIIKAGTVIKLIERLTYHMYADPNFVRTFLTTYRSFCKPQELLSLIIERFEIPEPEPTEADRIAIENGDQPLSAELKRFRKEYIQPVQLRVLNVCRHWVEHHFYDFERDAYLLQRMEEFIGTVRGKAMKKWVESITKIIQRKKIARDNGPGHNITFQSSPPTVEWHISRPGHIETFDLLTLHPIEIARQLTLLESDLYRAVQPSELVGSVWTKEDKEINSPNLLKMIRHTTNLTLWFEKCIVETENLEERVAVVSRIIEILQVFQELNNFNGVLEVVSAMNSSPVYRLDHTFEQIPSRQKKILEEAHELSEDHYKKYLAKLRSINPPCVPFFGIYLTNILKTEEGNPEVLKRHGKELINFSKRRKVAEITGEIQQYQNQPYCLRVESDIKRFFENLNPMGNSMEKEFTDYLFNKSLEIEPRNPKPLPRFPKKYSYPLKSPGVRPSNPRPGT
Description: SOS1 activity was measured by SOS1-mediated GTP loading quantification of KRAS^G12D. GTP loaded KRAS^G12D was detected by HTRF (Homogeneous Time Resolved Fluorescence) using anti-GST terbium (Cisbio, France) as a donor and a fluorescence GTP analogue (EDA-GTP-DY-647P1, [DY-647P1 labeled 2'/3'-O-(2-aminoethyl-carbamoyl)guanosine-5'-triphosphate (Jena bioscience, Germany)]) as an acceptor.
KRAS^G12D working solution was prepared by adding equal amounts of GST-KRAS^G12D (100 nM) and anti-GST-terbium (2 nM; Cisbio, France) to the assay buffer and culturing on ice for 10 minutes. […] Control solution was prepared by adding equal volumes of EDA-GTP-DY-647P1 and the assay buffer for normalization control to exclude GEF-independent GTP loading and background signals.
10 uL of the KRAS^G12D solution was added to each well and incubated for 30 minutes at room temperature while shaking. HTRF was measured using a Thermo Varioskan (excitation 334 nm, emission 665 nm). The IC50 of each inhibitor was analyzed using Graphad Prism.

[2] = target: T2, KRAS G12C::SOS1 (Homo sapiens, UniProt Q07889); experiment: KRAS G12C::SOS1 protein-protein interaction (PPI) inhibition assay (HTRF); assay type: binding
T2 construct: purchased CISBIO 64KRASG12PEH
T2 sequence (Q07889 1-1333): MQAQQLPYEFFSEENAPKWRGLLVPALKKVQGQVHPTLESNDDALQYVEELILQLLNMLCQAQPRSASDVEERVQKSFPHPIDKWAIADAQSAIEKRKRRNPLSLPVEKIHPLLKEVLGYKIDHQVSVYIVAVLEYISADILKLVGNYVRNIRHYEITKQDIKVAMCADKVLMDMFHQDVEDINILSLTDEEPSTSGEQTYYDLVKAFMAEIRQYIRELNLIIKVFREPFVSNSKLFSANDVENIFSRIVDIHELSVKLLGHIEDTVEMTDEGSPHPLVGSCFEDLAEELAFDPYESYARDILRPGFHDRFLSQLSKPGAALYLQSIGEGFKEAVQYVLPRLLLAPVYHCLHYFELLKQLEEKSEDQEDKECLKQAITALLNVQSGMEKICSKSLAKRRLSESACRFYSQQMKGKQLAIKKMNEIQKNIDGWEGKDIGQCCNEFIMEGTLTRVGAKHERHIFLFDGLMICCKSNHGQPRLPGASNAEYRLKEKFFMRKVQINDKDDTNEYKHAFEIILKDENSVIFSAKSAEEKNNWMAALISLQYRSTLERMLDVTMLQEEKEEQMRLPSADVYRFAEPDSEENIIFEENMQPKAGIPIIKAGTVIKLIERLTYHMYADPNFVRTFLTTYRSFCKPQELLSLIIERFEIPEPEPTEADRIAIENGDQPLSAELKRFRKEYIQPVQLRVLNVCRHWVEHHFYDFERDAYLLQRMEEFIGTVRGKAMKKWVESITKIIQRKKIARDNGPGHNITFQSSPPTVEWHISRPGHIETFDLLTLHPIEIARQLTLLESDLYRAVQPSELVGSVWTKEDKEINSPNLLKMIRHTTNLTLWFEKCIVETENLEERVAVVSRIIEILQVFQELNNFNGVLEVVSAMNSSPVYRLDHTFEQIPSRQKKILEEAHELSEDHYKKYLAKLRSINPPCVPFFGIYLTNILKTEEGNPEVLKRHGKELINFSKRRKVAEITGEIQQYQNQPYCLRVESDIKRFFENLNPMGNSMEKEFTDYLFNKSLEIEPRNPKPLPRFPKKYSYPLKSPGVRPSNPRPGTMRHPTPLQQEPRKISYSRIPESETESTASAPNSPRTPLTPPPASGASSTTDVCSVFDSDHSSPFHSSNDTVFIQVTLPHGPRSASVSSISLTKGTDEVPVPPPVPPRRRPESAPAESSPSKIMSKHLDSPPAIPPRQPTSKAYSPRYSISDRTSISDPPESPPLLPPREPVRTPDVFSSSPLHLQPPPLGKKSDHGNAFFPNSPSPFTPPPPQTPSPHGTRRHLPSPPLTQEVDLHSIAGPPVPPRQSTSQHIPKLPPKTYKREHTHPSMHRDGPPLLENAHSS
Description: Protein-protein interaction between SOS1 and KRAS^G12c was detected using KRAS G12C/SOS1 binding kit from CISBIO (64KRASG12PEH, CISBIO, FRANCE) according to the manufacturer's assay method. Briefly, the maximum concentration of an inhibitor sample was set to be 3 µM, and the inhibitor sample was diluted 7 times by 1/3, and samples having a total of 8 concentrations were prepared. In HTRF (Homogeneous Time-Resolved Fluorescence) exclusive 96-well low-volume white plate (66PL96005, CISBIO, FRANCE), 2 µL of an inhibitor sample prepared for each concentration, 5 µL of a mixed solution of Tag1 labeled KRAS^G12c protein and GTP diluted with the dilution solution provided by the manufacturer, and 5 µL of Tag2 labeled SOS1 protein were mixed, and added with 8 µL of a diluted solution where anti-Tag1 KRAS^G12C XL665 (HTRF acceptor) labeled antibody and anti-Tag2 SOS1 Terbium cryptate (HTRF donor) labeled antibody were mixed in an equal ratio and cultured at room temperature for 2 h.

[3] = GST-KRAS G12D, HIS-SOS1cat, compound 128 pM to 10 µM; read-out: SOS-catalyzed nucleotide exchange assay
[4] = 8 concentrations from 3 µM, three replicates; read-out: KRAS G12C::SOS1 PPI

Compound | IC50 [1, 3] [nM] | IC50 [2, 4] [nM] | IC50 ([1]; read-out: SOS-catalyzed nucleotide exchange assay; GST-KRAS G12D, HIS-SOS1cat, compound 128 pM to 10 µM) [nM] | IC50 ([2]; read-out: KRAS G12C::SOS1 PPI; 8 concentrations from 3 µM, three replicates) [nM]
CCc1cc(C(=O)N[C@H](C)c2cccc(C(F)(F)CO)c2F)nn(-c2cncc(-c3cnnn3C(C)C)c2)c1=O [Example 1-41, N-{(R)-1-[3-(1,1-difluoro-2-hydroxyethyl)-2-fluorophenyl]ethyl}-5-ethyl-1-[5-(1-isopropyl-1H-1,2,3-triazol-5-yl)-3-pyridyl]-6-oxo-1,6-dihydropyridazine-3-carboxamide] | < 50 | < 50 | – | –
[2H]c1cc(C(=O)N[C@H](C)c2cccc(C(F)(F)CO)c2F)nn(-c2cncc(-c3cnnn3C3CC3)c2)c1=O [Example 1-43] | < 50 | < 50 | – | –
C[C@@H](NC(=O)c1ccc(=O)n(-c2cncc(-c3cnnn3C)n2)c1)c1cccc(C(F)(F)F)c1F [Example 1-48, N-{(R)-1-[2-fluoro-3-(trifluoromethyl)phenyl]ethyl}-1-[6-(1-methyl-1H-1,2,3-triazol-5-yl)pyrazin-2-yl]-6-oxo-1,6-dihydropyridine-3-carboxamide] | > 150 | > 150 | – | –
CC(C)n1nncc1-c1cncc(-n2nc(C(=O)N[C@H](C)c3cccc(C(F)(F)F)c3F)ccc2=O)c1 [Example 1-49, N-[(1R)-1-[2-fluoro-3-(trifluoromethyl)phenyl]ethyl]-1-[5-(3-isopropyltriazol-4-yl)-3-pyridyl]-6-oxo-pyridazine-3-carboxamide] | – | – | 50 to 150 | < 50
C[C@@H](NC(=O)c1ccc(=O)n(-c2cncc(-c3cnnn3C3CC3)c2)n1)c1cccc(C(F)F)c1F [Example 1-51, N-[(1R)-1-[3-(difluoromethyl)-2-fluorophenyl]ethyl]-1-[5-(1-cyclopropyl-1H-1,2,3-triazol-5-yl)-3-pyridyl]-6-oxo-pyridazine-3-carboxamide] | < 50 | 50 to 150 | – | –
C[C@@H](NC(=O)c1ccc(=O)n(-c2cncc(-c3cnnn3C3CCC3)c2)n1)c1cccc(C(F)(F)CO)c1F [Example 1-55, 1-[5-(1-cyclobutyl-1H-1,2,3-triazol-5-yl)-3-pyridyl]-N-[(1R)-1-[3-(1,1-difluoro-2-hydroxy-ethyl)-2-fluoro-phenyl]ethyl]-6-oxo-pyridazine-3-carboxamide] | < 50 | < 50 | – | –
C[C@@H](NC(=O)c1ccc(=O)n(-c2cncc(-c3cnnn3C3CC3)c2)n1)c1cc(N)cc(C(F)(F)F)c1 [Example 1-56, 1-[5-(1-cyclopropyl-1H-1,2,3-triazol-5-yl)-3-pyridyl]-6-oxo-N-[(1R)-1-[3-amino-5-(trifluoromethyl)phenyl]ethyl]pyridazine-3-carboxamide] | < 50 | < 50 | – | –
[2H]C([2H])([2H])[C@@H](NC(=O)c1ccc(=O)n(-c2cncc(-c3cnnn3C3CC3)c2)n1)c1cccc(C(F)(F)CO)c1F [Example 1-60, 1-[5-(1-cyclopropyl-1H-1,2,3-triazol-5-yl)-3-pyridyl]-6-oxo-N-[(1R)-2,2,2-trideuterio-1-[3-(1,1-difluoro-2-hydroxy-ethyl)-2-fluoro-phenyl]ethyl]pyridazine-3-carboxamide] | < 50 | < 50 | – | –
C[C@@H](NC(=O)c1ccc(=O)n(-c2cncc(-c3cnnn3C3CC3)c2)c1)c1cccc(C(F)(F)F)c1F [Example 1-68, 1-[5-(1-cyclopropyl-1H-1,2,3-triazol-5-yl)-3-pyridyl]-N-[(1R)-1-[2-fluoro-3-(trifluoromethyl)phenyl]ethyl]-2-oxo-2H-[1,3'-bipyridine]-5-carboxamide] | < 50 | < 50 | – | –

Further lines, with some results ahead:

IC50 [1, 3] [nM] | IC50 [2, 4] [nM] | Compound | IC50 ([1]; read-out: SOS-catalyzed nucleotide exchange assay; GST-KRAS G12D, HIS-SOS1cat, compound 128 pM to 10 µM) [nM] | IC50 ([2]; read-out: KRAS G12C::SOS1 PPI; 8 concentrations from 3 µM, three replicates) [nM]
50 to 150 | < 50 | [2H]c1cc(C(=O)N[C@H](C)c2cccc(C(F)(F)F)c2F)nn(-c2cncc(-c3cnnn3C)c2)c1=O [Example 1-38, N-{(R)-1-[2-fluoro-3-(trifluoromethyl)phenyl]ethyl}-1-[5-(1-methyl-1H-1,2,3-triazol-5-yl)-3-pyridyl]-6-oxo-1,6-dihydropyridazine-5-deuterio-3-carboxamide] | – | –
< 50 | 50 to 150 | C[C@@H](NC(=O)c1ccc(=O)n(-c2cncc(-c3cnnn3C3COC3)c2)n1)c1cccc(C(F)(F)F)c1F [Example 1-57, 1-[5-[1-(oxetan-3-yl)triazol-5-yl]-3-pyridyl]-6-oxo-N-[(1R)-1-[2-fluoro-3-(trifluoromethyl)phenyl]ethyl]pyridazine-3-carboxamide] | – | –
< 50 | 50 to 150 | C[C@@H](NC(=O)c1cc(C(C)(C)O)c(=O)n(-c2cncc(-c3cnnn3C)c2)n1)c1cccc(C(F)(F)F)c1F [Example 1-59, (R)-N-(1-(2-fluoro-3-(trifluoromethyl)phenyl)ethyl)-5-(2-hydroxypropane-2-yl)-1-(5-(1-methyl-1H-1,2,3-triazol-5-yl)pyridin-3-yl)-6-oxo-1,6-dihydropyridazine-3-carboxamide] | – | –
> 150 | 50 to 150 | C[C@@H](NC(=O)c1cc(C2CCCCC2)c(=O)n(-c2cncc(-c3cnnn3C)c2)n1)c1cccc(C(F)(F)F)c1F [Example 1-65, N-{(R)-1-[2-fluoro-3-(trifluoromethyl)phenyl]ethyl}-5-cyclohexyl-1-[5-(1-methyl-1H-1,2,3-triazol-5-yl)-3-pyridyl]-6-oxo-1,6-dihydropyridazine-3-carboxamide] | – | –
50 to 150 | < 50 | CCc1cc(C(=O)N[C@H](C)c2cccc(C(F)(F)F)c2F)nn(-c2cncc(-c3cnnn3C)c2)c1=O [Example 1-66, N-{(R)-1-[2-fluoro-3-(trifluoromethyl)phenyl]ethyl}-5-ethyl-1-[5-(1-methyl-1H-1,2,3-triazol-5-yl)-3-pyridyl]-6-oxo-1,6-dihydropyridazine-3-carboxamide] | – | –
